What all share (test): cell-based
One test deals with hNav1.5 (Homo sapiens, UniProt Q14524). To be noted: IonWorks Quattro, read-out: IWQ Use Nav1.5. (In general: The patch-clamp technique gives a direct electrical read-out from membranes.)
A further test addresses hNav1.7 (Homo sapiens, UniProt Q15858). It counts as cell-based.
A further test addresses hNav1.3 (Homo sapiens, UniProt Q9NY46). As to conditions: IonWorks Quattro, read-out: IWQ Use Nav1.3.
Setting [1] is: IonWorks Quattro, use-dependent block, hNav1.7, read-out: IWQ Use Nav1.7.
Setting [2] is: clamped to −110 mV, depolarized to −10 mV, 5 min after compound, n=2.

In patent US9340590B2 (priority 2011, dated 2016) one finds IC50 data, which are given here for seven compounds.

Molecules are shown by their SMILES. Like-named read-outs stand apart in the source and are kept apart here. Positions of bridges follow the written chain, without caps; N, C: chain ends. Residues, ends and D or L forms follow the SMILES beside them.

Sequence of hNav1.3 (Q9NY46 whole entry, looked up): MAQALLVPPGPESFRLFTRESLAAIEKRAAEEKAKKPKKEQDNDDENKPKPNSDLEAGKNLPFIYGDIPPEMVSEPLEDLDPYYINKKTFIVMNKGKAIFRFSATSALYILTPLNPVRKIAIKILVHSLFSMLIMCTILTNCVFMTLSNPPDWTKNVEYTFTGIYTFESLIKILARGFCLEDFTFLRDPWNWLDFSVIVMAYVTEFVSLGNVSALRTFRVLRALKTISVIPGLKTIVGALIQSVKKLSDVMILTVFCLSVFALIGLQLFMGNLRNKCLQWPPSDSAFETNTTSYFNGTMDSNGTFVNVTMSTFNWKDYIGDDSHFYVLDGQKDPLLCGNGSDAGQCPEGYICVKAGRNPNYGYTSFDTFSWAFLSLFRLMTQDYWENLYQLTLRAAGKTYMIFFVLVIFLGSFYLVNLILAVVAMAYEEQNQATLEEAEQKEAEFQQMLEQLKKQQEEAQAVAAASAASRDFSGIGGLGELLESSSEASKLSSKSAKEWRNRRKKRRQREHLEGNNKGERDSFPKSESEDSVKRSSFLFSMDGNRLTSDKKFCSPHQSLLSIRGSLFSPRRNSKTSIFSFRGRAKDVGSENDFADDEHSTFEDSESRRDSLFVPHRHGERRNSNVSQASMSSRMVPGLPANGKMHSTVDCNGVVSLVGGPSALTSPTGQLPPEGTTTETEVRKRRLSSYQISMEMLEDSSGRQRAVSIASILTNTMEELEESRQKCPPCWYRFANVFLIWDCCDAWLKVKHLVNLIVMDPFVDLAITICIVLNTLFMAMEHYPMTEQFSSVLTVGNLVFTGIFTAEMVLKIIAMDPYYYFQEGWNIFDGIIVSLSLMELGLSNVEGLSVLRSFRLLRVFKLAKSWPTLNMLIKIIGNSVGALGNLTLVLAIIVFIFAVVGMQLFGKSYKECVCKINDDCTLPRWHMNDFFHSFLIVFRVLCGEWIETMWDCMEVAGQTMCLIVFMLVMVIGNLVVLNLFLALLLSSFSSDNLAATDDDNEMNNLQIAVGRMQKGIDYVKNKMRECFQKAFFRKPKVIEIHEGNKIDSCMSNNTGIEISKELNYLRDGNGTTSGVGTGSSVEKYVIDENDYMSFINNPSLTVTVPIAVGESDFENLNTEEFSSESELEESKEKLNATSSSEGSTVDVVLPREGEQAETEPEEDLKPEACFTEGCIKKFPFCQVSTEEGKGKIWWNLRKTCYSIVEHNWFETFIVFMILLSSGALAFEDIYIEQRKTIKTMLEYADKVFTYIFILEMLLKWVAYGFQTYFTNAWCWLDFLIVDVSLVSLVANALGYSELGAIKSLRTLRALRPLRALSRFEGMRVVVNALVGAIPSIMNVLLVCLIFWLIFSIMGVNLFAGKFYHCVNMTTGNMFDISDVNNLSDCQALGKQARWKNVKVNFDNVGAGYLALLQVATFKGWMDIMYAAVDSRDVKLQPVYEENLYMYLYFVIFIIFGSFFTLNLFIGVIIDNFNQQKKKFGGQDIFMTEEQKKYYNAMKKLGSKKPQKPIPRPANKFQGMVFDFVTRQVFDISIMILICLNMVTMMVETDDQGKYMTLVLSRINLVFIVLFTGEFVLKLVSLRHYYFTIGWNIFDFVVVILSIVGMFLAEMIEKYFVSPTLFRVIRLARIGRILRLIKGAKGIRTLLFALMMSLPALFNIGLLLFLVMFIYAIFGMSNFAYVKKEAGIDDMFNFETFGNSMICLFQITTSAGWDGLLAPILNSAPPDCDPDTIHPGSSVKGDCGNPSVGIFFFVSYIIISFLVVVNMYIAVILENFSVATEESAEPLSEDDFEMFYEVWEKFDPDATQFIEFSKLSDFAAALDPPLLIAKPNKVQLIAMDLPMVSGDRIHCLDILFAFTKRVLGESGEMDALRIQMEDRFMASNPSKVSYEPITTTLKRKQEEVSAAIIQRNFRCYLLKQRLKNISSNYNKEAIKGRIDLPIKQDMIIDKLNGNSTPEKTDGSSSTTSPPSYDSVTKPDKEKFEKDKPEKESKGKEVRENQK
Sequence of hNav1.7 (Q15858 whole entry, looked up): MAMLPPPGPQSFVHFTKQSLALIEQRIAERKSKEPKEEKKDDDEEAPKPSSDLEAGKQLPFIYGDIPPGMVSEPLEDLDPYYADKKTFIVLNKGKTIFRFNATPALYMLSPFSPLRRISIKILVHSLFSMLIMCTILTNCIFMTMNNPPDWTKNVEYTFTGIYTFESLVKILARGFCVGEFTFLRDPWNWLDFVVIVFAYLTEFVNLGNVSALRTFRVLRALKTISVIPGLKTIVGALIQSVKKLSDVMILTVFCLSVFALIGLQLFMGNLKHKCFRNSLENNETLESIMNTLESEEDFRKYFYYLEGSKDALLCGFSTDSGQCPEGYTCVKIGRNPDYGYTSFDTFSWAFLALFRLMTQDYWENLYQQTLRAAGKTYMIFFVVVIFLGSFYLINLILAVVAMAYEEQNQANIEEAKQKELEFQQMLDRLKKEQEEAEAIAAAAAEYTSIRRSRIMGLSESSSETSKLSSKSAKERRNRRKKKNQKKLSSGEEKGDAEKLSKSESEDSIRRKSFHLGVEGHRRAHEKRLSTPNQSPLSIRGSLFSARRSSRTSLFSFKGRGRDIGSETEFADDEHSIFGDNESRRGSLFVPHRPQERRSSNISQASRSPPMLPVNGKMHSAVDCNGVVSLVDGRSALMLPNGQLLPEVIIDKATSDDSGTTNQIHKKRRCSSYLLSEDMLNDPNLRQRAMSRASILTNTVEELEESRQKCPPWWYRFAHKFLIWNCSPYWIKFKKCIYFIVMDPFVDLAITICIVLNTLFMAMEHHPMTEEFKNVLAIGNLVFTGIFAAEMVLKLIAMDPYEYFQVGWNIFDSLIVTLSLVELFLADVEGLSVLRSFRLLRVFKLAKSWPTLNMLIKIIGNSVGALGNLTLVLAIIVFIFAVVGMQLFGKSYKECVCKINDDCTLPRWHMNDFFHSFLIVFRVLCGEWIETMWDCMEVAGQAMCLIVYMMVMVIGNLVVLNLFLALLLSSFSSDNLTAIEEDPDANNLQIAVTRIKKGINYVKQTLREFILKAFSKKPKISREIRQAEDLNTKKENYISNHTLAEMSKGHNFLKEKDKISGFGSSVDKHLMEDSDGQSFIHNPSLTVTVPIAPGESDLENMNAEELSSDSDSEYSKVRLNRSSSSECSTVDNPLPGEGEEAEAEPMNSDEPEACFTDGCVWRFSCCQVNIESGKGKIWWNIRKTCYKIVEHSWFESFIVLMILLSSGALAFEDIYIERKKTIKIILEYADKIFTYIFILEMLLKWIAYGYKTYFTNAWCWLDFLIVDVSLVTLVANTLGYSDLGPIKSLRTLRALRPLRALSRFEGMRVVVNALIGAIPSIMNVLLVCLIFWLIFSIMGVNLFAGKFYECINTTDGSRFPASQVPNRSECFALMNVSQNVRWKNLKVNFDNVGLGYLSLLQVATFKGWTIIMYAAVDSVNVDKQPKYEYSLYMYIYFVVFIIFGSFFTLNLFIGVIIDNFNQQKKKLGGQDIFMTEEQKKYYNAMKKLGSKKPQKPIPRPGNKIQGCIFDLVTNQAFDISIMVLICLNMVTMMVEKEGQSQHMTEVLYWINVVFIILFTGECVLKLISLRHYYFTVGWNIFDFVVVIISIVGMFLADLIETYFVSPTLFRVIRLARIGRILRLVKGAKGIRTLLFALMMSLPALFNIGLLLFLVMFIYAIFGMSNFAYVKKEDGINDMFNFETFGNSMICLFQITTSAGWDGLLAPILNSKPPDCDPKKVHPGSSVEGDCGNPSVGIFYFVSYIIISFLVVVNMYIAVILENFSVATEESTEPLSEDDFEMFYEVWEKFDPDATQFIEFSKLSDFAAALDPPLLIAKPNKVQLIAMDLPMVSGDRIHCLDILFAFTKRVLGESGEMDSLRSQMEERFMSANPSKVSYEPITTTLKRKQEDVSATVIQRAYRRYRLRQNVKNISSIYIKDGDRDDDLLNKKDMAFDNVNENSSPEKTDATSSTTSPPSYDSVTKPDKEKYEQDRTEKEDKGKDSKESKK

As to `CC[C@H](C)[C@@H]1NC(=O)[C@@H]2CSSC[C@@H]3NC(=O)[C@H](C(C)C)NC(=O)[C@H](CC(C)C)NC(=O)[C@H](CC(N)=O)NC(=O)[C@@H]4CCCN4C(=O)[C@H](CCCNC(=N)N)NC(=O)[C@H](CSSC[C@H](NC(=O)[C@@H](N)CC(=O)O)C(=O)N[C@@H](CC(C)C)C(=O)NCC(=O)N(C)CC(=O)N[C@@H](CC(C)C)C(=O)N[C@@H](CCCNC(=N)N)C(=O)N[C@@H](CCCCN)C(=O)N2)NC(=O)[C@H](CSSC[C@@H](C(=O)N[C@@H](CCCCN)C(=O)N[C@@H](Cc2ccc(O)cc2)C(=O)N[C@H](C(=O)N[C@@H](Cc2ccccc2)C(N)=O)C(C)C)NC(=O)[C@H](Cc2c[nH]c4ccccc24)NC(=O)[C@H](CCCCN)NC(=O)[C@H](Cc2c[nH]cn2)NC(=O)[C@H]([C@@H](C)O)NC(=O)[C@H](CCCNC(=N)N)NC(=O)[C@H](CO)NC3=O)NC(=O)[C@H](CCCCN)NC(=O)[C@H](CC(=O)O)NC(=O)[C@H](CC(N)=O)NC(=O)[C@H](CC(=O)O)NC(=O)[C@@H]2CCCN2C1=O` [compound 646], the IC50 at hNav1.5 (use-dependent protocol, hNav1.5) is greater than 5000 nM; at hNav1.7 (IonWorks Quattro, use-dependent protocol, hNav1.7, read-out: IWQ Use Nav1.7), 920 nM; on hNav1.3 (use-dependent protocol, hNav1.3) it was 1700 nM.
With `CC[C@H](C)[C@@H]1NC(=O)[C@@H]2CSSC[C@@H]3NC(=O)[C@H](C(C)C)NC(=O)[C@H](CC(C)C)NC(=O)[C@H](CC(N)=O)NC(=O)[C@@H]4CCCN4C(=O)[C@H](CCCNC(=N)N)NC(=O)[C@H](CSSC[C@H](NC(=O)[C@@H](N)CC(=O)O)C(=O)N[C@@H](CC(C)C)C(=O)NCC(=O)N[C@@H](Cc4ccccc4)C(=O)N[C@@H](CCSC)C(=O)N[C@@H](CCCNC(=N)N)C(=O)N[C@@H](CCCCN)C(=O)N2)NC(=O)[C@H](CSSC[C@@H](C(=O)N[C@@H](CCCCN)C(=O)N[C@@H](Cc2ccc(O)cc2)C(=O)N[C@H](C(=O)N[C@@H](Cc2ccccc2)C(N)=O)C(C)C)NC(=O)[C@H](Cc2c[nH]c4ccccc24)NC(=O)[C@H](CCCCN)NC(=O)[C@H](Cc2cnc[nH]2)NC(=O)[C@H](CC(C)C)NC(=O)[C@H](CCCNC(=N)N)NC(=O)[C@H](CO)NC3=O)NC(=O)[C@H](CCCCN)NC(=O)[C@H](CC(=O)O)NC(=O)[C@H](CC(N)=O)NC(=O)[C@H](CC(=O)O)NC(=O)[C@@H]2CCCN2C1=O` [SEQ ID NO: 121, [Leu26]GpTx-1] (H-DCLGFMRKCIPDNDKCCRPNLVCSRLHKWCKYVF-NH2; disulfide 2-17, 9-23, 16-30), the IC50 at hNav1.5 (Table 22, use, […]) worked out at 10200 nM; at hNav1.7 it was 70 nM; on hNav1.3 (Table 22, use, […]) it was 70 nM.
As for `CC[C@H](C)[C@@H]1NC(=O)[C@@H]2CSSC[C@@H]3NC(=O)[C@H](C(C)C)NC(=O)[C@H](CC(C)C)NC(=O)[C@H](CC(N)=O)NC(=O)[C@@H]4CCCN4C(=O)[C@H](CCCNC(=N)N)NC(=O)[C@H](CSSC[C@H](NC(=O)[C@@H](N)CC(=O)O)C(=O)N[C@@H](CC(C)C)C(=O)NCC(=O)N[C@@H](C)C(=O)N[C@@H](Cc4ccccc4)C(=O)N[C@@H](CCCNC(=N)N)C(=O)N[C@@H](CCCCN)C(=O)N2)NC(=O)[C@H](CSSC[C@@H](C(=O)N[C@@H](CCCCN)C(=O)N[C@@H](Cc2ccc(O)cc2)C(=O)N[C@H](C(=O)N[C@@H](Cc2ccccc2)C(=O)O)C(C)C)NC(=O)[C@H](Cc2c[nH]c4ccccc24)NC(=O)[C@H](CCCNC(=N)N)NC(=O)[C@H](Cc2c[nH]cn2)NC(=O)[C@H]([C@@H](C)O)NC(=O)[C@H](CCCNC(=N)N)NC(=O)[C@H](CO)NC3=O)NC(=O)[C@H](CCCCN)NC(=O)[C@H](CC(=O)O)NC(=O)[C@H](CC(=O)O)NC(=O)[C@H](CC(=O)O)NC(=O)[C@@H]2CCCN2C1=O` [compound 837], the IC50 at hNav1.5 (use-dependent block, hNav1.5) was greater than 5000 nM; on hNav1.7 (setting [1]), greater than 5000 nM; on hNav1.3 (use-dependent block, hNav1.3), 2300 nM.
`CC[C@H](C)[C@@H]1NC(=O)[C@@H]2CSSC[C@@H]3NC(=O)[C@H](C(C)C)NC(=O)[C@H](CC(C)C)NC(=O)[C@H](CC(N)=O)NC(=O)[C@@H]4CCCN4C(=O)[C@H](CCCNC(=N)N)NC(=O)[C@H](CSSC[C@H](NC(=O)[C@@H](N)CC(=O)O)C(=O)N[C@@H](CC(C)C)C(=O)NCC(=O)N[C@@H](Cc4ccccc4)C(=O)N(C)[C@@H](Cc4c[nH]c5ccccc45)C(=O)N[C@@H](CCCNC(=N)N)C(=O)N[C@@H](CCCCN)C(=O)N2)NC(=O)[C@H](CSSC[C@@H](C(=O)N[C@@H](CCCCN)C(=O)N[C@@H](Cc2ccc(O)cc2)C(=O)N[C@H](C(=O)N[C@@H](Cc2ccccc2)C(N)=O)C(C)C)NC(=O)[C@H](Cc2c[nH]c4ccccc24)NC(=O)[C@H](CCCCN)NC(=O)[C@H](Cc2c[nH]cn2)NC(=O)[C@H]([C@@H](C)O)NC(=O)[C@H](CCCNC(=N)N)NC(=O)[C@H](CO)NC3=O)NC(=O)[C@H](CCCCN)NC(=O)[C@H](CC(=O)O)NC(=O)[C@H](CC(N)=O)NC(=O)[C@H](CC(=O)O)NC(=O)[C@@H]2CCCN2C1=O` [SEQ ID NO: 289]: the IC50 on hNav1.5 (setting [2]) was determined as 21400 nM; at hNav1.7 (IonWorks Quattro, clamped to −110 mV, depolarized to −10 mV, 5 min after compound, n=2, read-out: IWQ Use Nav1.7), 140 nM; at hNav1.3 (setting [2]), 240 nM.
For `CC[C@H](C)[C@@H]1NC(=O)[C@@H]2CSSC[C@@H]3NC(=O)[C@H](C(C)C)NC(=O)[C@H](CC(C)C)NC(=O)[C@H](CC(N)=O)NC(=O)[C@@H]4CCCN4C(=O)[C@H](CCCNC(=N)N)NC(=O)[C@H](CSSC[C@H](NC(=O)[C@@H](N)CC(=O)O)C(=O)N[C@@H](CC(C)C)C(=O)NCC(=O)N[C@@H](C)C(=O)N[C@@H](Cc4ccccc4)C(=O)N[C@@H](CCCNC(=N)N)C(=O)N[C@@H](CCCCN)C(=O)N2)NC(=O)[C@H](CSSC[C@@H](C(=O)N[C@@H](CCCCN)C(=O)N[C@@H](Cc2ccc(O)cc2)C(=O)N[C@H](C(=O)N[C@@H](Cc2ccccc2)C(=O)O)C(C)C)NC(=O)[C@H](Cc2c[nH]c4ccccc24)NC(=O)[C@H](CCCNC(=N)N)NC(=O)[C@H](Cc2c[nH]cn2)NC(=O)[C@H]([C@@H](C)O)NC(=O)[C@H](CCCNC(=N)N)NC(=O)[C@H](CO)NC3=O)NC(=O)[C@H](CCCCN)NC(=O)[C@H](CC(=O)O)NC(=O)[C@H](CCC(N)=O)NC(=O)[C@H](CC(=O)O)NC(=O)[C@@H]2CCCN2C1=O` [compound 847], the IC50 on hNav1.5 (use-dependent block, hNav1.5) is greater than 5000 nM; on hNav1.7 (setting [1]) it was greater than 5000 nM; on hNav1.3 (use-dependent block, hNav1.3), 1700 nM.
As to `CC[C@H](C)[C@@H]1NC(=O)[C@@H]2CSSC[C@@H]3NC(=O)[C@H](C(C)C)NC(=O)[C@H](CC(C)C)NC(=O)[C@H](CC(N)=O)NC(=O)[C@@H]4CCCN4C(=O)[C@H](CCCNC(=N)N)NC(=O)[C@H](CSSC[C@H](NC(=O)[C@@H](N)CC(=O)O)C(=O)N[C@@H](CC(C)C)C(=O)NCC(=O)N[C@@H](Cc4ccccc4)C(=O)N[C@@H](CCSC)C(=O)N[C@@H](CCCNC(=N)N)C(=O)N[C@@H](CCCCN)C(=O)N2)NC(=O)[C@H](CSSC[C@@H](C(=O)N[C@@H](CCCCN)C(=O)N[C@@H](Cc2ccc(O)cc2)C(=O)N[C@H](C(=O)N[C@@H](Cc2ccccc2)C(N)=O)C(C)C)NC(=O)[C@H](Cc2c[nH]c4ccccc24)NC(=O)[C@H](CCCCN)NC(=O)[C@H]([C@@H](C)O)NC(=O)[C@H](CCCCN)NC(=O)[C@H](CCCNC(=N)N)NC(=O)[C@H](CO)NC3=O)NC(=O)[C@H](CCCCN)NC(=O)[C@H](CC(=O)O)NC(=O)[C@H](CC(N)=O)NC(=O)[C@H](CC(=O)O)NC(=O)[C@@H]2CCCN2C1=O` [compound 94] (H-DCLGFMRKCIPDNDKCCRPNLVCSRKTKWCKYVF-NH2; disulfide 2-17, 9-23, 16-30), the IC50 on hNav1.5 (Table 22, use, […]) came to 9290 nM; on hNav1.7 (Table 22, IonWorks Quattro, use, […], read-out: IWQ Use Nav1.7) it was 100 nM; on hNav1.3 (Table 22, use, […]) it was 50 nM.
With `CC[C@H](C)[C@@H]1NC(=O)[C@@H]2CSSC[C@@H]3NC(=O)[C@H](C(C)C)NC(=O)[C@H](CC(C)C)NC(=O)[C@H](CC(N)=O)NC(=O)[C@@H]4CCCN4C(=O)[C@H](CCCNC(=N)N)NC(=O)[C@H](CSSC[C@H](NC(=O)[C@@H](N)CC(=O)O)C(=O)N[C@@H](CC(C)C)C(=O)NCC(=O)N[C@@H](C)C(=O)N[C@@H](CC(C)C)C(=O)N[C@@H](CCCNC(=N)N)C(=O)N[C@@H](CCCCN)C(=O)N2)NC(=O)[C@H](CSSC[C@@H](C(=O)N[C@@H](CCCCN)C(=O)N[C@@H](Cc2ccc(O)cc2)C(=O)N[C@H](C(=O)N[C@@H](Cc2ccccc2)C(=O)O)C(C)C)NC(=O)[C@H](Cc2c[nH]c4ccccc24)NC(=O)[C@H](Cc2c[nH]cn2)NC(=O)[C@H](Cc2c[nH]cn2)NC(=O)[C@H]([C@@H](C)O)NC(=O)[C@H](CCCNC(=N)N)NC(=O)[C@H](CO)NC3=O)NC(=O)[C@H](CCCCN)NC(=O)[C@H](CC(=O)O)NC(=O)[C@H](CC(N)=O)NC(=O)[C@H](CC(=O)O)NC(=O)[C@@H]2CCCN2C1=O` [compound 599] (H-DCLGALRKCIPDNDKCCRPNLVCSRTHHWCKYVF-OH; disulfide 2-17, 9-23, 16-30), the IC50 on hNav1.5 (use-dependent block, hNav1.5) was 12700 nM; at hNav1.7 (setting [1]) it was greater than 5000 nM; on hNav1.3 (use-dependent block, hNav1.3), 2200 nM.
